Assay results published in patent publication US9127016B2, “Small molecule inhibitors of Dusp6 and uses therefor” (University of Pittsburgh—Of the Commonwealth System of …, priority 2009, dated 2015).
pIC50: −log10 of the molar value.

Legend:
[1] = system: FGF signaling (d2EGFP reporter); test: BCI analog SAR: d2EGFP intensity in transgenic zebrafish embryos by densitometry; assay type: in vivo; details: 20 μM, 24 hpf embryos, 6 h; for Activity (BCI = 100): d2EGFP intensity in the dorsal region
Protocol: Transgenic zebrafish embryos (24 hpf) were treated with 20 μM solution of BCI analogs in 0.5% aq DMSO and fluorescence photomicrographs were taken after 6 h. The effectiveness of BCI analogs was evaluated by densitometry (ImageJ) of d2EGFP intensity in the dorsal region.

human Dusp1 = target: T1, human Dusp1 (Homo sapiens, UniProt P28562); test: Chemical complementation assay in HeLa cells, pERK restoration, Dusp1-Myc; assay type: cell-based; details: TPA stimulated
T1 construct: expressed in transfected cells; host or cells: HeLa cells, pcDNA3.1, FuGene 6
T1 sequence (P28562 1-367): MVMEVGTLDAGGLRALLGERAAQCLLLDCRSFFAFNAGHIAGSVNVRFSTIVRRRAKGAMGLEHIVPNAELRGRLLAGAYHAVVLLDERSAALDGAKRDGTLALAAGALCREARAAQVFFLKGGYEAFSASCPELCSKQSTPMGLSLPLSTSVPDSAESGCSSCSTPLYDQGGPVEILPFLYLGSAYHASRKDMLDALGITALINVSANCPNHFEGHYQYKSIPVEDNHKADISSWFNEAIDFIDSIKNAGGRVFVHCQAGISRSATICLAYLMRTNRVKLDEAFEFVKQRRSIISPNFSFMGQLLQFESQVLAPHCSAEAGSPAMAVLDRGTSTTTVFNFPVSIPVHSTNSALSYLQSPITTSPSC
Protocol: (§1) These experiments were carried out essentially as described26. HeLa cells were obtained from ATCC (Manassas, Va.) and maintained in a humidified atmosphere of 5% CO2 at 37° C., Dulbecco's […] (DMEM) supplemented with 10% fetal bovine serum (FBS, HyClone, Logan, Utah), and 1% penicillin-streptomycin (Life Technologies, Inc., Rockville, Md.). c-Myc-Dusp6 and c-Myc-Dusp1 (also known as CL100) (kindly provided by Dr. Stephen Keyse, University of Dundee) were subcloned into pcDNA3.1 for ectopic expression in mammalian cells50. […] Plates were analyzed by three-channel multiparametric analysis for p-ERK and c-Myc-DUSP intensities in an area defined by nuclear staining using the Compartmental Analysis Bioapplication on an ArrayScan II high-content reader (Cellomics, Pittsburgh, Pa.). Restoration of ERK phosphorylation by BCI in Dusp6 overexpressing cells was quantified by Kolmogorov-Smirnov (KS) statistics as described previously using DUSP-transfected and vehicle treated control wells26. One thousand individual cells were gated for Dusp-Myc expression based on c-Myc immunostaining and analyzed for ERK phosphorylation. […] To quantify restoration of Erk phosphorylation in the Dusp expressing cells after compound treatment, KS values for each condition were normalized to the average KS value from four wells transfected with Dusp1 or Dusp6 and treated with vehicle. […]

Dusp6 = target: T2, Dusp6 (Homo sapiens, UniProt Q16828); test: Chemical complementation assay in HeLa cells, pERK restoration, Dusp6-Myc; assay type: cell-based; set-up: expressed in transfected cells; host or cells: HeLa cells, pcDNA3.1, FuGene 6; details: TPA stimulated
T2 sequence (Q16828 1-381): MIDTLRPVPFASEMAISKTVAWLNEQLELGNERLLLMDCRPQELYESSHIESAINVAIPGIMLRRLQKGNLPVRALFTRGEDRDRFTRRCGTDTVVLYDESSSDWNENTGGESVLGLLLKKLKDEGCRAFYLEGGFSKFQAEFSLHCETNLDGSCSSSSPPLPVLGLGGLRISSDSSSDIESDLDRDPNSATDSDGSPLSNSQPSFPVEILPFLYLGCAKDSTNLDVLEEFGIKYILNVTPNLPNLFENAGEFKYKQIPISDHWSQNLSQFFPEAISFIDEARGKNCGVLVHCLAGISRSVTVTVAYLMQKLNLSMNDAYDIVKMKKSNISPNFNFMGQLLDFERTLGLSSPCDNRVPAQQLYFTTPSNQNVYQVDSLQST
Protocol: as §1

| SMILES | Activity (BCI = 100) ([1]; listed as 3 (BCI)) | pIC50 (human Dusp1; 15 min compound, read-out: IC50, Dusp1 inhibition (pERK restoration)) | pIC50 (Dusp6; 15 min compound, read-out: IC50, Dusp6 inhibition (pERK restoration)) | in vivo activity relative to BCI, in words [1] | Activity (BCI = 100) [1] | block of Dusp1 activity in chemical complementation assay (human Dusp1) | block of Dusp6 activity in chemical complementation assay (Dusp6) |
| --- | --- | --- | --- | --- | --- | --- | --- |
| O=C1/C(=C/c2ccccc2)C(NC2CCCCC2)c2ccccc21 (stereo not shown) [Compound 3, (E)-2-benzylidene-3-(cyclohexylamino)-2,3-dihydro-1H-inden-1-one] | 100 | 4.95 | 4.80 | – | – | – | – |
| O=C1CC(NC2CCCCC2)c2ccccc21 (stereo not shown) [Compound 17, 3-(Cyclohexylamino)-2,3-dihydro-1H-inden-1-one] | – | – | – | inactive | 0 | did not block | did not block |
